Patent EP0563238B1, “IMIDAZOLYL-ALKENOIC ACIDS” (SMITHKLINE BEECHAM CORPORATION, priority 1990, dated 1992)

Target: vascular angiotensin II receptors
Assay: 125I-angiotensin II radioligand binding assay
Details: particular fraction from rat mesenteric arteries, 80 pM 125I-angiotensin II, 1 hour at 25°C; concentration needed to displace 50% of the total specifically bound angiotensin II
Method: Angiotensin II antagonist activity of the compounds of Formula (I) is assessed by in vitro and in vivo methods. In vitro antagonist activity is determined by the ability of the compounds to compete with ^125I-angiotensin II for binding to vascular angiotensin II receptors and by their ability to antagonize the contractile response to angiotensin II in the isolated rabbit aorta. In vivo activity is evaluated by the efficacy of the compounds to inhibit the pressor response to exogenous angiotensin II in conscious rats and to lower blood pressure in a rat model of renin dependent hypertension.
The radioligand binding assay is a modification of a method previously described in detail (Gunther et al., Circ. Res. 47:278, 1980). A particular fraction from rat mesenteric arteries is incubated in Tris buffer with 80 pM of ^125I-angiotensin II with or without angiotensin II antagonists for 1 hour at 25°C. The incubation is terminated by rapid filtration and receptor bound ^125I-angiotensin II trapped on the filter is quantitated with a gamma counter. The potency of angiotensin II antagonists is expressed as the IC50 which is the concentration of antagonist needed to displace 50% of the total specifically bound angiotensin II.

IC50: ~250 nM
SMILES: CCCCc1ncc(/C=C(\Cc2cccs2)C(=O)O)n1-c1ccc(C(=O)O)cc1 [Example 1, (E)-3-[2-n-Butyl-1-{4-carboxyphenyl}-1H-imidazo-5-yl]-2-(2-thienyl)methyl-2-propenoic acid]
